From BigSolDB 2.1

Cc1cc(C)c(C(=O)P(=O)(c2ccccc2)c2ccccc2)c(C)c1
solubility (mole fraction)
Conditions | in acetone | in acetonitrile | in ethanol | in ethyl acetate | in isobutanol | in isopropanol | in methanol | in methyl acetate | in n-butanol | in n-propanol
273.15 K | 0.0685 | 0.0242 | 0.0761 | 0.043 | 0.0761 | 0.0262 | 0.11 | 0.0504 | 0.0795 | 0.0827
278.15 K | 0.0844 | 0.0312 | 0.0895 | 0.0529 | 0.0882 | 0.0366 | 0.125 | 0.0616 | 0.092 | 0.0983
283.15 K | 0.101 | 0.0482 | 0.107 | 0.0621 | 0.109 | 0.0544 | 0.145 | 0.0767 | 0.116 | 0.118
288.15 K | 0.12 | 0.0687 | 0.13 | 0.0819 | 0.133 | 0.0755 | 0.172 | 0.0963 | 0.139 | 0.139
293.15 K | 0.143 | 0.101 | 0.154 | 0.102 | 0.159 | 0.11 | 0.195 | 0.12 | 0.162 | 0.168
298.15 K | 0.169 | 0.144 | 0.184 | 0.126 | 0.187 | 0.158 | 0.233 | 0.149 | 0.2 | 0.196
303.15 K | 0.197 | 0.197 | 0.218 | 0.16 | 0.22 | 0.21 | 0.272 | 0.186 | 0.236 | 0.226
308.15 K | 0.232 | 0.271 | 0.266 | 0.194 | 0.256 | 0.276 | 0.298 | 0.229 | 0.271 | 0.262
